# Laboratory results taken from a melting point compilation (Tetko et al.; mined from patent text by program, amines drawn as free bases though some values may be those of a salt).
row,SMILES,melting point
1,Cc1ccc2nc3n(c(=O)c2c1)-c1ccc(F)cc1C3=O,300 to 301 °C
2,CCCn1nc2c(N)nc3ccccc3c2c1CCN(C(N)=O)c1ccc(F)c(F)c1,211 to 212 °C
3,O=C(O)CCOc1cccc(CNC(=O)C2Cc3ccccc3N2S(=O)(=O)c2ccc(-c3cccc(C(F)(F)F)c3)cc2)c1 (stereo not drawn),70 °C
4,Cc1noc(C)c1C(=O)Nc1ccc(-n2nc(C3CC3)cc2C2CC2)c(F)c1,166 to 168 °C
5,O=C(Nc1cc(C(F)(F)F)cc(C(F)(F)F)c1)Nc1cc(C(F)(F)F)ccc1Oc1ccccc1C(=O)O,229 to 231 °C
6,CCOC(=O)C1(CC(=O)Nc2cccnc2)N=C(c2ccc(Cl)cc2)c2c(sc(C)c2C)-n2c(C)nnc21 (stereo not drawn),133 to 135 °C
7,COc1ccc(Nc2nc(Cl)nc(NCCO)n2)cc1,169 to 173 °C
8,CC(C)(C)OC(=O)N1CCN(c2cccc(Cl)c2/C=N/NS(=O)(=O)c2ccccc2)CC1,162 to 165 °C
9,CCOC1Nc2c(ccc(C)c2O)C(=O)N2CCCC12 (stereo not drawn),155 to 157 °C
10,CNC(=N[N+](=O)[O-])NCc1ccc(Cl)nc1,150 to 152 °C
11,COc1ccc(CNc2ncnc(Cl)c2N)cc1OC,185 to 188 °C
12,CC(=O)Oc1ccc(C=Cc2cc(OC(C)=O)cc(OC(C)=O)c2)cc1,112 to 113 °C
13,O=C(O)CC(=O)N(c1ccccc1)c1ccccc1,126 to 127 °C
14,CCOC(=O)C1=CC(=NO)[C@@H](NC(C)=O)[C@@H]2OC(C)(C)O[C@H]12,106 to 116 °C
15,CC(OCc1ccc(-c2ccccc2)cc1)(C(=O)O)C(F)(F)F (stereo not drawn),80 to 81 °C
16,COc1ccc(/C=C(\CSC(C)=O)C(=O)O)cc1,155 °C
17,CCOC(=O)c1c(OCC)ccn1C(=O)n1cccc1C(=O)O,58 to 60 °C
18,CCOC(=O)C1Cc2ccc(NC(=O)OCc3ccccc3)cc2NC1=O (stereo not drawn),187 to 189 °C
19,O=CN(O)C(CC1CCS(=O)(=O)CC1)CS(=O)(=O)c1ccc(Oc2ccc(OC(F)(F)F)cc2)cc1 (stereo not drawn),143 to 144 °C

row,SMILES,melting point
1,C(C#Cc1cccc2ccccc12)#Cc1cccc2ccccc12,176 to 177 °C
2,O=Cc1cc2ccc3ccsc3c2c2ccccc12,173 to 177 °C
3,N#Cc1cc2c(cc1Br)nc1n2CCC1,224 °C
4,O=C(Nc1ccc(N(CCCl)CCCl)cc1)Nc1c2ccccc2nc2ccccc12,184 to 186 °C
5,Cc1ccsc1CNC(=O)C(=O)NCCc1ccccn1,122 to 124 °C
6,O=C1CC(OC(CBr)CBr)N1 (stereo not drawn),80 to 80.5 °C
7,CN(O)C(=O)Nc1c(C(=O)c2cccc(Cl)c2)[nH]c2cc(Cl)ccc12,205 to 206 °C
8,Cc1cc(OCc2coc(C=Cc3ccc(OC(F)(F)F)cc3)n2)ccc1COCCn1ccnn1,84 to 85 °C
9,Cn1nnc(-c2ccc3c(c2)c(C2=CCN(CCN4CCNC4=O)CC2)cn3-c2ccc(F)cc2)n1,201 to 203 °C
10,COc1cc2c(cc1OC)C(c1ccccc1)=NC(c1cccnc1)C2 (stereo not drawn),180 to 182 °C
11,COCN1C(C)=C(C(=O)OCOC(=O)C(C)(C)C)C(c2ccccc2C(F)(F)F)C(C(=O)OCOC(=O)C(C)(C)C)=C1C,96 to 97 °C
12,COc1ccc(Cl)cc1C1C(=O)Nc2cc(C(F)(F)F)ccc21 (stereo not drawn),210 to 213 °C
13,CN(C)c1nc(C(=O)NCCO[N+](=O)[O-])cs1,94 to 95 °C
14,Cc1cnc(N2C(=O)C(O)=C(C(=O)c3ccc(C(C)C)cc3)C2c2ccc(OC(F)(F)F)cc2)cn1 (stereo not drawn),266 to 268 °C
15,CC(O)C1CCC2C3CC=C4CC(O)CC(O)C4(C)C3CCC12C (stereo not drawn),235 to 237 °C
16,CCN(CC)c1ccc(-c2ccc3c(c2)C=C(C(=O)Nc2ccc(CN(C)C4CCOCC4)cc2)CCS3(=O)=O)cc1,240 to 246 °C
17,Cc1c(-c2ccc(OC(F)F)c(OC3CC3)c2)[nH]c2cn[nH]c(=O)c12,245 to 246 °C
18,N#CCc1cccc(CO)c1[N+](=O)[O-],60 to 62 °C
19,O=C(c1cccs1)c1cnn2c(-c3cccc(OC4CCCC4)c3)ccnc12,135 to 138 °C
